Where two headings read alike, the source gives them in different places.
Experiments:
A2aR [1] = target: T1, A2aR (Homo sapiens, UniProt P29274); test: Inhibition of binding of A2aR to its isotopically labeled ligand
From the text: (§1) Meanwhile, ILB-2109 had high selectivity for A2aR (compared with A1, A2b and A3 receptors, the selectivity was 18.9 times, 40.7 times and 3424.7 times respectively).

A1 receptor = A1 receptor (Homo sapiens, UniProt P30542); test: Adenosine receptor selectivity, A2aR compared with A1; type: binding
From the text: as §1

A2aR [2] = target: T1, A2aR; test: Antagonism of A2aR activity at the cellular level; type: cell-based
From the text: as §1

[3] = SD rat absorption test (pharmacokinetics); type: in vivo, SD rats; settings: for bioavailability / AUC(0-t) / half-life / clearance / Vd / Cmax: Sprague-Dawley, rat, plasma; for bioavailability: oral 12 mg/kg; for half-life: read-out: elimination half-life (T1/2) (converted); for clearance: read-out: plasma clearance rate (CL); for Vd: read-out: steady-state apparent volume of distribution (Vdss); for Cmax: read-out: peak concentrations (Cmax); for ratio of AUC0-last on Day 7 to Day 1 / ratio of Cmax on Day 7 to Day 1: continuous oral 40 mg/kg for 7 days
Protocol: According to the Technical Guidelines for Non-clinical Pharmacokinetic Studies of Drugs and the results of in vitro metabolic species difference studies, liquid chromatography-tandem mass spectrometry (LC-MS/MS) was used in this pharmacokinetic study to fully verify the analytical method for the determination of ILB-2109 content in plasma (EDTA-K2 anticoagulation) of Sprague-Dawley rats and cynomolgus monkeys. The linear range of the method was 20.0~20000 nM. The precision, accuracy and other indicators of the method were confirmed to comply with the relevant regulations of biological sample detection.
This experiment studied the pharmacokinetic properties of ILB-2109 in female and male SD rats, including 1) 2 mg/kg single intravenous injection administration study; 2) 12, 40 and 120 mg/kg oral dose escalation study; 3) 40 mg/kg repeated oral administration BID for 7 consecutive days.

Plasma protein binding [4] = type: in vitro ADME; settings: one range given for CD-1 mice, Sprague-Dawley rats, Beagle dogs and cynomolgus monkeys
Plasma protein binding [5] = type: in vitro ADME; settings: one range given for CD-1 mice, Sprague-Dawley rats, Beagle dogs and cynomolgus monkeys; remark: listed apart in the source
[6] = Excretion of total radioactivity in intact rats; type: in vivo
Protocol: Excretion mainly occurred within 48 hours after administration, accounting for about 88.01% of the administered dose.

[7] = Excretion of total radioactivity in bile duct cannulated (BDC) rats; type: in vivo
CYP1A2 [8] = target: T2, CYP1A2 (Homo sapiens, UniProt P05177); test: Human liver microsome CYP inhibition (direct and time-dependent); type: in vitro ADME
T2 construct: In vitro human liver microsome tests; from tissue; host or cells: human liver microsomes
From the text: (§2) The non-dilution method was used to determine the time-dependent inhibitory effect of ILB-2109 on human liver microsomal cytochrome P450 isoenzymes (CYP1A2, CYP2B6, CYP2C8, CYP2C9, CYP2C19, CYP2D6 and CYP3A4). Generally, an IC50 shift multiple ≥1.5 was taken as the judgment standard for time-dependent inhibitors.

CYP2B6 [9] = target: T3, CYP2B6 (Homo sapiens, UniProt P20813); test: as above; type: in vitro ADME
T3 construct: In vitro human liver microsome tests; from tissue; host or cells: human liver microsomes
From the text: as §2

CYP2C19 = target: T4, CYP2C19 (Homo sapiens, UniProt P33261); test: as above; type: in vitro ADME
T4 construct: In vitro human liver microsome tests; from tissue; host or cells: human liver microsomes
From the text: as §2

CYP2C8 = target: T5, CYP2C8 (Homo sapiens, UniProt P10632); test: as above; type: in vitro ADME
T5 construct: In vitro human liver microsome tests; from tissue; host or cells: human liver microsomes
From the text: as §2

CYP2C9 = target: T6, CYP2C9 (Homo sapiens, UniProt P11712); test: as above; type: in vitro ADME
T6 construct: In vitro human liver microsome tests; from tissue; host or cells: human liver microsomes
From the text: as §2

CYP2D6 = target: T7, CYP2D6 (Homo sapiens, UniProt P10635); test: as above; type: in vitro ADME
T7 construct: In vitro human liver microsome tests; from tissue; host or cells: human liver microsomes
From the text: as §2

CYP3A4 [10] = target: T8, CYP3A4 (Homo sapiens, UniProt P08684); test: as above; type: in vitro ADME; settings: for IC50: human liver microsomes
T8 construct: In vitro human liver microsome tests; from tissue; host or cells: human liver microsomes
From the text: as §2

CYP1A2 [11] = test: In vitro hepatocyte induction assay; type: in vitro ADME
From the text: (§3) In vitro hepatocyte induction assay was used to evaluate the effect of ILB-2109 on the enzyme activity and gene expression level of cytochrome P450 isoenzymes CYP1A2, CYP2B6 and CYP3A4.

CYP2B6 [12] = test: In vitro hepatocyte induction assay; type: in vitro ADME
From the text: as §3

CYP3A4 [13] = test: In vitro hepatocyte induction assay; type: in vitro ADME; settings: for induction, gene expression level: hepatocytes
From the text: as §3

[14] = test system: bone marrow polychromatic erythrocytes; test: Micronucleus test; type: in vivo; settings: SD rats, intragastric 500 ~ 2000 mg/kg
Protocol: SD rats were given intragastric administration of 500 ~ 2000 mg/kg ILB-2109.

[15] = female SD rats, single intravenous injection 2 mg/kg
[16] = female SD rats, single oral 12 mg/kg
[17] = female SD rats, single oral 40 mg/kg
[18] = female SD rats, single oral 120 mg/kg
[19] = male SD rats, single intravenous injection 2 mg/kg
[20] = male SD rats, single oral 12 mg/kg
[21] = male SD rats, single oral 40 mg/kg
[22] = male SD rats, single oral 120 mg/kg
[23] = 0-168 hours after single oral administration
[24] = BDC rats, 0-72 hours after single oral administration
[25] = non-dilution method, IC50 shift multiple ≥1.5 as judgment standard
[26] = hepatocytes, 0.200, 2.00 or 20.0 µM

T8 sequence (P08684 2-503): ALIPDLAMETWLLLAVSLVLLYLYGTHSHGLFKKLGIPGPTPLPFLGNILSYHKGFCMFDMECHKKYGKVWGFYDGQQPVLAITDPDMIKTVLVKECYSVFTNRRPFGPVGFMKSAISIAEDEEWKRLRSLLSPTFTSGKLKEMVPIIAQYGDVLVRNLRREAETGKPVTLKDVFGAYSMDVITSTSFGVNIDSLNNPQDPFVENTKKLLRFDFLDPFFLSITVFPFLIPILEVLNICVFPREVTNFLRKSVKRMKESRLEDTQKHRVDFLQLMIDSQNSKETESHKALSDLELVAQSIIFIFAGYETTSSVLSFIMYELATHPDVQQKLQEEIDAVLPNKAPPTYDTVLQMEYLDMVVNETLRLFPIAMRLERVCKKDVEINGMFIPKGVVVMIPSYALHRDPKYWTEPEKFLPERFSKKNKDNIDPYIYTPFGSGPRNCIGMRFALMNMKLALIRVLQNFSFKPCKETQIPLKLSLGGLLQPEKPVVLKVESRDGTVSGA
T1 sequence (P29274 whole entry): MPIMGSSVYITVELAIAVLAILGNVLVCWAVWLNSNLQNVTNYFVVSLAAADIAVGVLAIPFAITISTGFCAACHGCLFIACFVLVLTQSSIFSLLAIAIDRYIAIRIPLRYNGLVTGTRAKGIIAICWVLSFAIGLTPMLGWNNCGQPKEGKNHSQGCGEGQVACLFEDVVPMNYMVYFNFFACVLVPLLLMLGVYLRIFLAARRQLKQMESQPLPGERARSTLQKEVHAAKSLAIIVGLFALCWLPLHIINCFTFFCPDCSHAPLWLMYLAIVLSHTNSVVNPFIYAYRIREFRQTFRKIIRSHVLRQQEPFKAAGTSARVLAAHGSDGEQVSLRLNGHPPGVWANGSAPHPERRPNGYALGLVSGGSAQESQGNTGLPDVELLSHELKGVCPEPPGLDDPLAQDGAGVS
T5 sequence (P10632 whole entry): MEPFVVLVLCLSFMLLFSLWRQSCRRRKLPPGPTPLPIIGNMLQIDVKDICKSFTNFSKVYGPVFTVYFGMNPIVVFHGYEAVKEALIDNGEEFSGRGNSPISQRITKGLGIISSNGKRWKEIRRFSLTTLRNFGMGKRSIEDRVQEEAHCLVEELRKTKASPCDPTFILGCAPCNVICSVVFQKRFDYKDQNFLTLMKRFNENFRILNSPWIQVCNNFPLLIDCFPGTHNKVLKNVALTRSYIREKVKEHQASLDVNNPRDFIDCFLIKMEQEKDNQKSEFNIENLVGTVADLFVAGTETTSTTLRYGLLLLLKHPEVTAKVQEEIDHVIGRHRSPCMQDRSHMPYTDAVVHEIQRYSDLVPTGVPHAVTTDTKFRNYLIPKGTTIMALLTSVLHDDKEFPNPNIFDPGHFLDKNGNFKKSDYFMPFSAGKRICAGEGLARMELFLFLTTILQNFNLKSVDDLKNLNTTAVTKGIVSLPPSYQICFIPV
T7 sequence (P10635 whole entry): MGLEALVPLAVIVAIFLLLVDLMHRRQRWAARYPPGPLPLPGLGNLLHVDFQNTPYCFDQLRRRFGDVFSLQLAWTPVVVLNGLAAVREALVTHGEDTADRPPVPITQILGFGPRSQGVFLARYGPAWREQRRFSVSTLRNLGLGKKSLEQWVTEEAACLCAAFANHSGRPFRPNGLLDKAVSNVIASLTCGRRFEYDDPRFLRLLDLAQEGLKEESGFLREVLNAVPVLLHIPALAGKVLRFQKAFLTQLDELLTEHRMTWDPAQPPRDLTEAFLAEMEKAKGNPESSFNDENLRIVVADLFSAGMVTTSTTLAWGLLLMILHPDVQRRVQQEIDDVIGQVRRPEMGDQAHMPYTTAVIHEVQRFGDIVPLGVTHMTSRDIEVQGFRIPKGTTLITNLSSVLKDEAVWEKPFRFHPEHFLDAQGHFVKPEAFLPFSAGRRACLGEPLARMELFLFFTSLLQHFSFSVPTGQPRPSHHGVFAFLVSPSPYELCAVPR
T3 sequence (P20813 whole entry): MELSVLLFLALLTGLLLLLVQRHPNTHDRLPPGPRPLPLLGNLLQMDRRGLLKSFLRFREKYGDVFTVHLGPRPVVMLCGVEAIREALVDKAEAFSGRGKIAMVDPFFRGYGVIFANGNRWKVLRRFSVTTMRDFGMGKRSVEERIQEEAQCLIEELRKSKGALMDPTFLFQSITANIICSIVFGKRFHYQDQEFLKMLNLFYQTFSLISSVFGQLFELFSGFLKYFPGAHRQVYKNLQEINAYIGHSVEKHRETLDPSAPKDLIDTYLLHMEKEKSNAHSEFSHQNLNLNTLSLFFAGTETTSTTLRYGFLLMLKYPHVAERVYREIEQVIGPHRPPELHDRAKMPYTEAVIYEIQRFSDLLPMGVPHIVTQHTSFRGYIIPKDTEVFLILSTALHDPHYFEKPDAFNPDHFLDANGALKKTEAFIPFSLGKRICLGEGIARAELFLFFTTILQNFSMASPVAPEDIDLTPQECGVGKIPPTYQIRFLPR
T2 sequence (P05177 whole entry): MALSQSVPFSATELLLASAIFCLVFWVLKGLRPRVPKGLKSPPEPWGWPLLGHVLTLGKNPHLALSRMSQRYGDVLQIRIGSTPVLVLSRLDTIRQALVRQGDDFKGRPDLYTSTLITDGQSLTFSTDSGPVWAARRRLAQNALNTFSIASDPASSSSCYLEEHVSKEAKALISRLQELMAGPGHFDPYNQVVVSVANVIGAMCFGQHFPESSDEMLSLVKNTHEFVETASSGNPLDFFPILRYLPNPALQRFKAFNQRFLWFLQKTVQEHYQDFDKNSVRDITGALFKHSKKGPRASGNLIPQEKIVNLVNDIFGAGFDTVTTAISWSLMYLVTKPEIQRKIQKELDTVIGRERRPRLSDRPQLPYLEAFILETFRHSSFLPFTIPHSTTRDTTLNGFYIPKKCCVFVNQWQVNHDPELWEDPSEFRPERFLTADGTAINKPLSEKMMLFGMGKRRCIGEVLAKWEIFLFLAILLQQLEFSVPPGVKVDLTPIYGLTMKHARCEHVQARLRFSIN
T4 sequence (P33261 whole entry): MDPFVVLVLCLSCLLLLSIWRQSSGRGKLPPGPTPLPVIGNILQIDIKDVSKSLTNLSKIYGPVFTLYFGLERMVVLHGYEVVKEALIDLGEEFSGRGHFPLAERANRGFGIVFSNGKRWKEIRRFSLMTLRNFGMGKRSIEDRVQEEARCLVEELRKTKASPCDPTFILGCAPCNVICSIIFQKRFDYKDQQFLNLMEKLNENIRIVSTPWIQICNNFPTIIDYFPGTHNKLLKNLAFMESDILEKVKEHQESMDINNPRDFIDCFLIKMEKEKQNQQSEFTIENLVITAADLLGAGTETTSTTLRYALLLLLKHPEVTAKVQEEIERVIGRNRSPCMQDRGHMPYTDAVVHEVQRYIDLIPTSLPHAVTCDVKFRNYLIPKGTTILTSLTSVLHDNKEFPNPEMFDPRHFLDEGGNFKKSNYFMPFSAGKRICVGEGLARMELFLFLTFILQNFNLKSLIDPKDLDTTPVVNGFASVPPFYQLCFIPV
T6 sequence (P11712 whole entry): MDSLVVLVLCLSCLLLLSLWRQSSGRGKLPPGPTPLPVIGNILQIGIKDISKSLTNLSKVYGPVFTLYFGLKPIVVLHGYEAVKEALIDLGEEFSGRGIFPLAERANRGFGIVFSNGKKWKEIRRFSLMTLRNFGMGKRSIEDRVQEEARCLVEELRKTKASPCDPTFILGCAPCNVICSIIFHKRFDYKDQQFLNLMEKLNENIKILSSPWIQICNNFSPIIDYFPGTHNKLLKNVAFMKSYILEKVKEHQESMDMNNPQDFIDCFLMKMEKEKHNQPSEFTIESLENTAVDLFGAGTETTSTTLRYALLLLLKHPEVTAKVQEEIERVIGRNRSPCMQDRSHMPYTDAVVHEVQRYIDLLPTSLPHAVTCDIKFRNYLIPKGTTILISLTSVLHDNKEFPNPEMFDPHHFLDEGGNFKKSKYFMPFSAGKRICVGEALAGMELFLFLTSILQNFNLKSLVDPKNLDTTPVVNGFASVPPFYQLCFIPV
A1 receptor, sequence (P30542 whole entry): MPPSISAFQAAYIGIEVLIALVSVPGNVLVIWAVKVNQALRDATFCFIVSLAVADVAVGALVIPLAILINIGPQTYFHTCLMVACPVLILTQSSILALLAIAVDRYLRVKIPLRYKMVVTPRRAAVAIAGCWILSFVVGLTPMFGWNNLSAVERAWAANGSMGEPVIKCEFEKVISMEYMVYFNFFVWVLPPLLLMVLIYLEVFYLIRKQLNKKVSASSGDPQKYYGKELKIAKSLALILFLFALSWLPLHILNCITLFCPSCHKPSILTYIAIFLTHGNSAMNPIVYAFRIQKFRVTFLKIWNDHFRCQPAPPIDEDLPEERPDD

Structure (SMILES): Cc1cc(-c2c(-c3ccccc3)nc(N)n3nc(CO)nc23)cc(C(F)(F)F)n1 [ILB-2109]
- IC50 (A2aR [1]): 0.00292 µM
- selectivity for A2aR compared with A1 receptor (A1 receptor): 18.9 times
- IC50 (A2aR [2]; antagonism of A2aR activity): 0.00043 µM
- IC50 (A2aR [2]; tumor physiological equivalent conditions (NECA 5 µM)): 0.00108 µM
- tolerability in the PK study ([3]; SD rats, all dose regimens of the absorption test): tolerated the compound well without any abnormal manifestations
- bioavailability ([3]; female SD rats): 67.8%
- AUC(0-t) [3, 15]: 60.3 ± 5.18 µM·h
- half-life [3, 15]: 5.71 ± 1.25 h
- clearance [3, 15]: 0.0798 ± 0.0081 L/h/kg
- Vd [3, 15]: 0.526 ± 0.0558 L/kg
- AUC(0-t) [3, 16]: 247 ± 22.1 µM·h
- Cmax [3, 16]: 33.7 ± 2.8 µM
- AUC(0-t) [3, 17]: 915 ± 169 µM·h
- Cmax [3, 17]: 124 ± 17.5 µM
- AUC(0-t) [3, 18]: 1560 ± 205 µM·h
- Cmax [3, 18]: 155 ± 24.3 µM
- bioavailability ([3]; male SD rats): 73%
- AUC(0-t) [3, 19]: 13.3 ± 2.26 µM·h
- half-life [3, 19]: 1.26 ± 0.361 h
- clearance [3, 19]: 0.378 ± 0.0624 L/h/kg
- Vd [3, 19]: 0.681 ± 0.0975 L/kg
- AUC(0-t) [3, 20]: 58.9 ± 19.2 µM·h
- Cmax [3, 20]: 23.8 ± 2.23 µM
- AUC(0-t) [3, 21]: 296 ± 54.1 µM·h
- Cmax [3, 21]: 63.3 ± 1.65 µM
- AUC(0-t) [3, 22]: 792 ± 167 µM·h
- Cmax [3, 22]: 118 ± 19.8 µM
- peak time [3, 16]: 2.33 ± 1.53 h
- peak time [3, 17]: 3.33 ± 1.15 h
- peak time [3, 18]: 2.67 ± 1.15 h
- dose proportionality of systemic exposure (AUC0-last) and Cmax ([3]; female and male rats, oral dose range 12 to 40 mg/kg): increased basically proportionally to the dose
- ratio of AUC0-last on Day 7 to Day 1 ([3]; female rats): 0.669
- ratio of Cmax on Day 7 to Day 1 ([3]; female rats): 0.899
- peak time [3, 20]: 0.667 ± 0.289 h
- peak time [3, 21]: 1.33 ± 0.577 h
- peak time [3, 22]: 2.67 ± 1.15 h
- ratio of AUC0-last on Day 7 to Day 1 ([3]; male rats): 0.584
- ratio of Cmax on Day 7 to Day 1 ([3]; male rats): 0.673
- ratio of AUC0-last between female and male rats ([3]; oral single dose 12 mg/kg): 4.19
- ratio of AUC0-last between female and male rats ([3]; oral single dose 40 mg/kg): 3.09
- ratio of AUC0-last between female and male rats ([3]; oral single dose 120 mg/kg): 1.97
- binding rate in plasma (Plasma protein binding [4]): 87.3%-95.0%
- binding rate in plasma (Plasma protein binding [5]): 87.3%-95.0%
- average of total radioactivity recovery [6, 23]: 91.74%
- cage washing and cleaning fluid, share of the administered dose [6, 23]: 2.75%
- feces, share of the administered dose [6, 23]: 75.17%
- total urinary excretion, share of the administered dose [6, 23]: 13.81%
- excretion within 48 hours, share of the administered dose ([6]; within 48 hours after administration): about 88.01%
- average of total radioactivity recovery [7, 24]: 93.63%
- cage washing and cleaning fluid, share of the administered dose [7, 24]: 0.85%
- feces, share of the administered dose [7, 24]: 14.45%
- total biliary excretion, share of the administered dose [7, 24]: 66.17%
- urine, share of the administered dose [7, 24]: 12.16%
- oral absorption rate ([7]; from total radioactive excretion of bile and urine in BDC rats): at least 78.33%
- IC50 (CYP1A2 [8]; human liver microsomes): > 100 µM
- time-dependent inhibitory effect (CYP1A2 [8]; [25]): no time-dependent inhibitory effect
- IC50 (CYP2B6 [9]; human liver microsomes): > 100 µM
- time-dependent inhibitory effect (CYP2B6 [9]; [25]): no time-dependent inhibitory effect
- IC50 (CYP2C19; human liver microsomes): 91.6 µM
- time-dependent inhibitory effect (CYP2C19; [25]): no time-dependent inhibitory effect
- IC50 (CYP2C8; human liver microsomes): 33.9 µM
- time-dependent inhibitory effect (CYP2C8; [25]): no time-dependent inhibitory effect
- IC50 (CYP2C9; human liver microsomes): 57.2 µM
- time-dependent inhibitory effect (CYP2C9; [25]): no time-dependent inhibitory effect
- IC50 (CYP2D6; human liver microsomes): > 100 µM
- time-dependent inhibitory effect (CYP2D6; [25]): no time-dependent inhibitory effect
- IC50 (CYP3A4 [10]; midazolam as substrate): > 100 µM
- IC50 (CYP3A4 [10]; testosterone as substrate): > 100 µM
- time-dependent inhibitory effect (CYP3A4 [10]; [25]): no time-dependent inhibitory effect
- induction, gene expression level (CYP1A2 [11]; hepatocytes, 20.0 µM, Donor 1): inducer
- induction, enzyme activity (CYP1A2 [11]; [26]): not an inducer
- induction, gene expression level (CYP2B6 [12]; hepatocytes, 20.0 µM, Donor 1): inducer
- induction, enzyme activity (CYP2B6 [12]; [26]): not an inducer
- induction, gene expression level (CYP3A4 [13]; 2.00 µM, Donor 1 and Donor 3): inducer
- induction, gene expression level (CYP3A4 [13]; 20.0 µM, Donor 1, 2 and 3): inducer
- induction, enzyme activity (CYP3A4 [13]; [26]): not an inducer
- micronucleus induction [14]: no micronucleus-inducing effect

— patent publication EP4813990A1, “COMPOUND FOR TREATING CANCER” (INNOLAKE BIOPHARMA (HANGZHOU) CO., LTD., priority 2023, dated 2025)
